Patent publication US20180280377A1, “Imidazo[4,5-c]quinolin-2-one Compounds and Their Use in Treating Cancer” (ASTRAZENECA AB, priority 2015, published 2018)

Tests used:
ATR = target: T1, ATR (Homo sapiens, UniProt Q13535); assay: ATR cellular potency assay (pChk1 Ser345 in HT29 cells after 4NQO); type: cell-based; conditions: pChk1 (Ser 345); Table 2; read-out: Assay b) ATR Cell IC50
T1 construct: endogenous in cells; host or cells: HT29 cells (ECACC #85061109)
Experimental: (§1) The following assays were used to measure the effects of the compounds of the present invention: a) ATM cellular potency assay; b) PI3K cellular potency assay; c) mTOR cellular potency assay; d) ATR cellular potency assay. During the description of the assays, generally: • i. […] IC50 values were calculated using a smart fitting model in Genedata.
ATR is a PI3-kinase-related kinase which phosphorylates multiple substrates on serine or threonine residues in response to DNA damage during or replication blocks. Chk1, a downstream protein kinase of ATR, plays a key role in DNA damage checkpoint control. Activation of Chk1 involves phosphorylation of Ser317 and Ser345 (the latter regarded as the preferential target for phosphorylation/activation by ATR).
The following morning compound of Formula (I) in 100% DMSO were added to assay plates by acoustic dispensing. After 1 h incubation at 37° C. and 5% CO2, 40 nl of 3 mM 4NQO in 100% DMSO was added to all wells by acoustic dispensing, except minimum control wells which were left untreated with 4NQO to generate a null response control. Plates were returned to the incubator for a further 1 h. Then cells were fixed by adding 20 μl of 3.7% formaldehyde in PBS solution and incubating for 20 mins at r.t. Then […] of 0.1% Triton X100 in PBS was added and incubated for 10 minutes at r.t., to permeabalise cells. Then the plates were washed once with […] PBS, using a Biotek EL405 plate washer.
After 2 h incubation at r.t., the plates were washed three times with […] PBS, using a Biotek EL405 plate washer, and plates were then sealed with black plate seals until read. Plates were read using an ArrayScan VTI instrument, using an XF53 filter with 10× objective.

ATM = target: T2, ATM (Homo sapiens, UniProt Q13315); assay: ATM cellular potency assay (pATM Ser1981 in irradiated HT29 cells); type: cell-based; conditions: 1 h compound, X-ray irradiation, pATM (Ser1981); Table 2; read-out: Assay a) ATM Cell IC50
T2 construct: endogenous in cells; host or cells: HT29 cells (ECACC #85061109)
T2 sequence (Q13315 whole entry): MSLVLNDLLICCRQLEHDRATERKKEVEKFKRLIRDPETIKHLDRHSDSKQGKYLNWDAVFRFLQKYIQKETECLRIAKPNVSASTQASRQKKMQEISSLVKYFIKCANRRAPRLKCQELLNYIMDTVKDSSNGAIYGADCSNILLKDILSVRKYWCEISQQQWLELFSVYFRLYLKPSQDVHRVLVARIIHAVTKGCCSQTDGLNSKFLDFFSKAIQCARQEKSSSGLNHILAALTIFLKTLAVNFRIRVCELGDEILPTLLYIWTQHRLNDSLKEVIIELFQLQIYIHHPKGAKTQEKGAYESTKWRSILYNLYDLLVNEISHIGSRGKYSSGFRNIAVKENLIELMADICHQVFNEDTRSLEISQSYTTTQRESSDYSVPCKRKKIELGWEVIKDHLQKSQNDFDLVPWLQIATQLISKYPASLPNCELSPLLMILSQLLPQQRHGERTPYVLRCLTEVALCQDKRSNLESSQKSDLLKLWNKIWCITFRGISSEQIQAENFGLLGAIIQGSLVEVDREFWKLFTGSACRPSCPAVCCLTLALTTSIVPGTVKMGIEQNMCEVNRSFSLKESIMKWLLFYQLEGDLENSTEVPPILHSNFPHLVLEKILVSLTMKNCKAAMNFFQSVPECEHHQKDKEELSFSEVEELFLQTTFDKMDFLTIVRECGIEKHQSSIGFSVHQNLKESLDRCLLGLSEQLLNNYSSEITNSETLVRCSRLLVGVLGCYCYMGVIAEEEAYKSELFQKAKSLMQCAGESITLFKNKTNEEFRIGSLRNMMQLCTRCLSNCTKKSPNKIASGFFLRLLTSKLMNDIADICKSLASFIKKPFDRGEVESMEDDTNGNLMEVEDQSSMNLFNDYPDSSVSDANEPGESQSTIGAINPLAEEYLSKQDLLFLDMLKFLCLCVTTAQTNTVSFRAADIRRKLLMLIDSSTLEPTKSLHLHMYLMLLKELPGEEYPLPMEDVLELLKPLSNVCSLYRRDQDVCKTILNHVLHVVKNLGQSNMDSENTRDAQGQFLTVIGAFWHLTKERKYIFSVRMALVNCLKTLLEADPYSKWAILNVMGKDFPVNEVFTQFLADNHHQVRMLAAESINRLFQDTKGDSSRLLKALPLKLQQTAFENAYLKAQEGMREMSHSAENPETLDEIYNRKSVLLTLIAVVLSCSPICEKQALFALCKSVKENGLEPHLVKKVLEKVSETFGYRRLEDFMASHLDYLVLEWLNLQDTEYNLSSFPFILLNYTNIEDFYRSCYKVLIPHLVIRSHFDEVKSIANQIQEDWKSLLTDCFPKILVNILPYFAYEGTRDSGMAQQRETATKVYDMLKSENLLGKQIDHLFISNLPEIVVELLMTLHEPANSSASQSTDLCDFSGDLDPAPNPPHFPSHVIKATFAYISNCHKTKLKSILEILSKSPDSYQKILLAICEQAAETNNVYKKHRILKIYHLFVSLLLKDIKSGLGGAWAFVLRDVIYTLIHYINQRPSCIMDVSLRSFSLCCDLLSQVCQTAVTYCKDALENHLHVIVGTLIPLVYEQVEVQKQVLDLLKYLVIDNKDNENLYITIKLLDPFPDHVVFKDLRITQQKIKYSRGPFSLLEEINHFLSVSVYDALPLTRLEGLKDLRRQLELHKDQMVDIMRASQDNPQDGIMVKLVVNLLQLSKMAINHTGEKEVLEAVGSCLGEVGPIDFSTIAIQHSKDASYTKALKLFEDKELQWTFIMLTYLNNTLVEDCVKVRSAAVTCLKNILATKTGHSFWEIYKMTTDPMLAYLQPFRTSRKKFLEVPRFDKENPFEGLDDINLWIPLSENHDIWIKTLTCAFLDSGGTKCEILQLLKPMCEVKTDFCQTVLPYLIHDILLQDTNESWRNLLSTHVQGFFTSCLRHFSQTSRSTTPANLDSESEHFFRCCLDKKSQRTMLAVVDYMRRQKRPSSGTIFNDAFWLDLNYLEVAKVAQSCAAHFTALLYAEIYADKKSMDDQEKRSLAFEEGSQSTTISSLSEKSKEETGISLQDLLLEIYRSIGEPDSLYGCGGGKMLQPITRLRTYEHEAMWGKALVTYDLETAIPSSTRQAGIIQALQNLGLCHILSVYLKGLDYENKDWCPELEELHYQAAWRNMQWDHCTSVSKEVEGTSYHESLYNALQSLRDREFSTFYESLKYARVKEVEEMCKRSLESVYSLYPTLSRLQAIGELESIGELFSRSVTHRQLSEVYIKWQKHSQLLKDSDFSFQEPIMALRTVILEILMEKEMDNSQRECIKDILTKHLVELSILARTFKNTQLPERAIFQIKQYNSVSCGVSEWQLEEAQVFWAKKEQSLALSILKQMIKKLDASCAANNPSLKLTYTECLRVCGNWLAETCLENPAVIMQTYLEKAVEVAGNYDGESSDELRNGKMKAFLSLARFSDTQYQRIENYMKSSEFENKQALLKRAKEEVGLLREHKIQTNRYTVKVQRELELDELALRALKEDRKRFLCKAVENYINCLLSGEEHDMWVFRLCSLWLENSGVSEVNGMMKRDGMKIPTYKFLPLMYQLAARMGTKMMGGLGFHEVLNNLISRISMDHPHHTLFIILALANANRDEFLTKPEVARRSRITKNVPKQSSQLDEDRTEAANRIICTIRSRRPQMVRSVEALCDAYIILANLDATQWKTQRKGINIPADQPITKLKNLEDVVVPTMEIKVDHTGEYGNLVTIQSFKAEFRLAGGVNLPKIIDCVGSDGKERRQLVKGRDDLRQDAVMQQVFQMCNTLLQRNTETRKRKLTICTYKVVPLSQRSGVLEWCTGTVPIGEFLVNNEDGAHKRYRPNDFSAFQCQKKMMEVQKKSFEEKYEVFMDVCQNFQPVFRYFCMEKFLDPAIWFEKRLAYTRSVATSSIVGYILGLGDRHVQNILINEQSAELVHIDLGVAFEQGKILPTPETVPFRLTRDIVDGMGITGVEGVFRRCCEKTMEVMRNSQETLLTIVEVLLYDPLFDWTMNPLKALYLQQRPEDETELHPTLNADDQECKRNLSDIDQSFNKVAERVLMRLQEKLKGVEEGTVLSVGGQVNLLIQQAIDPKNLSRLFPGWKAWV
Experimental: as §1
Most ATM molecules in the cell are rapidly phosphorylated on this site after doses of radiation as low as 0.5 Gy, and binding of a phosphospecific antibody is detectable after the introduction of only a few DNA double-strand breaks in the cell.
The rationale of the pATM assay is to identify inhibitors of ATM in cells. HT29 cells are incubated with test compounds for 1 h prior to X-ray-irradiation. 1 h later the cells are fixed and stained for pATM (Ser1981). The fluorescence is read on the arrayscan imaging platform.
The following morning compounds of Formula (I) in 100% DMSO were added to assay plates by acoustic dispensing. After 1 h incubation at 37° C. and 5% CO2, plates (up to 6 at a time) were irradiated using the X-RAD 320 instrument (PXi) with equivalent to 600 cGy. Plates were returned to the incubator for a further 1 h. Then cells were fixed by adding 20 μl of 3.7% formaldehyde in PBS solution and incubating for 20 minutes at r.t. before being washed with 50μl/well PBS, using a Biotek EL405 plate washer. Then 20 μl of 0.1% Triton X100 in PBS was added and incubated for 20 minutes at r.t., to permeabalise cells. Then the plates were washed once with 50 μl/well PBS, using a Biotek EL405 plate washer.
After 1 h incubation at r.t., the plates were washed three times with 50 μl/well PBS, using a Biotek EL405 plate washer, and plates were sealed and kept in PBS at 4° C. until read. Plates were read using an ArrayScan VTI instrument, using an XF53 filter with 10× objective.

| IC50 (ATR) | IC50 (ATM) | SMILES |
| --- | --- | --- |
| 1970 nM | 16.7 nM | CO[C@@H]1CCC[C@H](n2c(=O)n(C)c3cnc4ccc(-c5ccc(N6CC(N(C)C)C6)nc5)cc4c32)C1 (single isomer, unassigned) [Example 50, 8-[6-[3-(dimethylamino)azetidin-1-yl]-3-pyridyl]-1-[cis-3-methoxycyclohexyl]-3-methyl-imidazo[4,5-c]quinolin-2-one] |
| 90.6 nM | 0.589 nM | CO[C@H]1CCC[C@H](n2c(=O)n(C)c3cnc4ccc(-c5ccc(N6CC[C@@H](N(C)C)C6)nc5)cc4c32)C1 (single isomer, unassigned) [Example 51] |
| 61.6 nM | 0.112 nM | CO[C@H]1CCC[C@H](n2c(=O)n(C)c3cnc4ccc(-c5ccc(N6CC[C@@H](N(C)C)C6)nc5)cc4c32)C1 (single isomer, unassigned) [Example 52] |
| > 21400 nM | 0.269 nM | CO[C@H]1CCC[C@H](n2c(=O)n(C)c3cnc4ccc(-c5ccc(N6CCC(N(C)C)CC6)nc5)cc4c32)C1 (single isomer, unassigned) [Example 53, 8-[6-[4-(dimethylamino)-1-piperidyl]-3-pyridyl]-1-[trans-3-methoxycyclohexyl]-3-methyl-imidazo[4,5-c]quinolin-2-one] |
| > 25600 nM | 0.061 nM | CO[C@H]1CCC[C@H](n2c(=O)n(C)c3cnc4ccc(-c5ccc(N6CCC(N(C)C)CC6)nc5)cc4c32)C1 (single isomer, unassigned) [Example 54, 8-[6-[4-(dimethylamino)-1-piperidyl]-3-pyridyl]-1-[trans-3-methoxycyclohexyl]-3-methyl-imidazo[4,5-c]quinolin-2-one] |
| 804 nM | 3.38 nM | CO[C@H]1CCC[C@H](n2c(=O)n(C)c3cnc4ccc(-c5ccc(N6CC(N(C)C)C6)nc5)cc4c32)C1 (single isomer, unassigned) [Example 55, 8-[6-[3-(dimethylamino)azetidin-1-yl]-3-pyridyl]-1-[trans-3-methoxycyclohexyl]-3-methyl-imidazo[4,5-c]quinolin-2-one] |
| 1190 nM | 15.7 nM | CO[C@H]1CCC[C@H](n2c(=O)n(C)c3cnc4ccc(-c5ccc(N6CC(N(C)C)C6)nc5)cc4c32)C1 (single isomer, unassigned) [Example 56, 8-[6-[3-(dimethylamino)azetidin-1-yl]-3-pyridyl]-1-[trans-3-methoxycyclohexyl]-3-methyl-imidazo[4,5-c]quinolin-2-one] |
| 284 nM | 0.312 nM | CO[C@H]1CC[C@H](n2c(=O)n(C)c3cnc4ccc(-c5ccc(N6CC[C@@H](N(C)C)C6)nc5)cc4c32)C1 [Example 5, 8-[6-[(3R)-3-(Dimethylamino)pyrrolidin-1-yl]-3-pyridyl]-1-[(1S,3S)-3-methoxycyclopentyl]-3-methyl-imidazo[4,5-c]quinolin-2-one] |
| > 30000 nM | 1.7 nM | CO[C@H]1C[C@@H](n2c(=O)n(C)c3cnc4cc(F)c(-c5ccc(N6CC[C@@H](N(C)C)C6)nc5)cc4c32)C1 [Example 6, 8-[6-[(3R)-3-(Dimethylamino)pyrrolidin-1-yl]-3-pyridyl]-7-fluoro-1-(cis-3-methoxycyclobutyl)-3-methyl-imidazo[4,5-c]quinolin-2-one] |
| 261 nM | 1.04 nM | CN(C)[C@@H]1CCN(c2ccc(-c3ccc4ncc5c(c4c3)n([C@H]3CCOC3)c(=O)n5C)cn2)C1 [Example 8] |
| 2480 nM | 0.842 nM | CN(C)[C@@H]1CCN(c2ccc(-c3ccc4ncc5c(c4c3)n([C@H]3CCCOC3)c(=O)n5C)cn2)C1 [Example 9] |
| 3210 nM | 0.752 nM | CO[C@H]1C[C@@H](n2c(=O)n(C)c3cnc4ccc(-c5ccc(N6CC[C@@H](N(C)C)C6)nc5)cc4c32)C1 [Example 10] |
| 1080 nM | 0.77 nM | CO[C@H]1C[C@H](n2c(=O)n(C)c3cnc4ccc(-c5ccc(N6CC[C@@H](N(C)C)C6)nc5)cc4c32)C1 [Example 11] |
| 223 nM | 0.434 nM | CO[C@H]1CC[C@H](n2c(=O)n(C)c3cnc4ccc(-c5ccc(N6CC[C@@H](N(C)C)C6)nc5)cc4c32)CC1 [Example 12] |
| > 30000 nM | 1.46 nM | CN(C)[C@@H]1CCN(c2ccc(-c3cc4c(cc3F)ncc3c4n([C@H]4CCCOC4)c(=O)n3C)cn2)C1 [Example 15] |
| > 22300 nM | 18.6 nM | CN(C)[C@H]1CCN(c2ccc(-c3ccc4ncc5c(c4c3)n([C@@H]3CCCOC3)c(=O)n5C)cn2)C1 [Example 16] |
| > 30000 nM | 13.7 nM | CN(C)[C@H]1CCN(c2ccc(-c3ccc4ncc5c(c4c3)n([C@H]3CCCOC3)c(=O)n5C)cn2)C1 [Example 17] |
| 17500 nM | 12.7 nM | CO[C@H]1C[C@@H](n2c(=O)n(C)c3cnc4ccc(-c5ccc(N6CC[C@H](N(C)C)C6)nc5)cc4c32)C1 [Example 18] |
| > 30000 nM | 63.4 nM | CN(C)[C@H]1CCN(c2ccc(-c3cc4c(cc3F)ncc3c4n([C@@H]4CCCOC4)c(=O)n3C)cn2)C1 [Example 19] |
| > 30000 nM | 25.8 nM | CO[C@H]1C[C@@H](n2c(=O)n(C)c3cnc4cc(F)c(-c5ccc(N6CC[C@H](N(C)C)C6)nc5)cc4c32)C1 [Example 21] |
| 9230 nM | 16.6 nM | CN(C)C1CN(c2ccc(-c3ccc4ncc5c(c4c3)n([C@H]3CCCOC3)c(=O)n5C)cn2)C1 [Example 24, 8-[6-[3-(dimethylamino)azetidin-1-yl]-3-pyridyl]-3-methyl-1-[(3S)-tetrahydropyran-3-yl]imidazo[4,5-c]quinolin-2-one] |
| 2520 nM | 6.61 nM | CO[C@H]1CC[C@H](n2c(=O)n(C)c3cnc4ccc(-c5ccc(N6CC(N(C)C)C6)nc5)cc4c32)CC1 [Example 25, 8-[6-[3-(dimethylamino)azetidin-1-yl]-3-pyridyl]-1-(trans-4-methoxycyclohexyl)-3-methyl-imidazo[4,5-c]quinolin-2-one] |
| > 20100 nM | 9.29 nM | CN(C)C1CN(c2ccc(-c3ccc4ncc5c(c4c3)n(C3CCC3)c(=O)n5C)cn2)C1 [Example 26, 1-cyclobutyl-8-[6-[3-(dimethylamino)azetidin-1-yl]-3-pyridyl]-3-methyl-imidazo[4,5-c]quinolin-2-one] |
| 5950 nM | 5.9 nM | CN(C)C1CN(c2ccc(-c3ccc4ncc5c(c4c3)n([C@@H]3CCCOC3)c(=O)n5C)cn2)C1 [Example 27, 8-[6-[3-(dimethylamino)azetidin-1-yl]-3-pyridyl]-3-methyl-1-[(3R)-tetrahydropyran-3-yl]imidazo[4,5-c]quinolin-2-one] |
| 18800 nM | 19.5 nM | CN(C)C1CN(c2ccc(-c3ccc4ncc5c(c4c3)n(C3CCOCC3)c(=O)n5C)cn2)C1 [Example 28, 8-[6-[3-(dimethylamino)azetidin-1-yl]-3-pyridyl]-3-methyl-1-tetrahydropyran-4-yl-imidazo[4,5-c]quinolin-2-one] |
| > 30000 nM | 0.911 nM | CN(C)C1CCN(c2ccc(-c3ccc4ncc5c(c4c3)n(C3CCC3)c(=O)n5C)cn2)CC1 [Example 37, 1-cyclobutyl-8-[6-[4-(dimethylamino)-1-piperidyl]-3-pyridyl]-3-methyl-imidazo[4,5-c]quinolin-2-one] |
| > 30000 nM | 3.91 nM | CN(C)C1CCN(c2ccc(-c3ccc4ncc5c(c4c3)n(C3COC3)c(=O)n5C)cn2)CC1 [Example 38, 8-[6-[4-(dimethylamino)-1-piperidyl]-3-pyridyl]-3-methyl-1-(oxetan-3-yl)imidazo[4,5-c]quinolin-2-one] |
| > 30000 nM | 2.02 nM | CN(C)C1CCN(c2ccc(-c3cc4c(cc3F)ncc3c4n([C@H]4CCCOC4)c(=O)n3C)cn2)CC1 [Example 41, 8-[6-[4-(dimethylamino)-1-piperidyl]-3-pyridyl]-7-fluoro-3-methyl-1-[(3S)-tetrahydropyran-3-yl]imidazo[4,5-c]quinolin-2-one] |
